# From paper PMC9500072, “Topical application of an irreversible small molecule inhibitor of lysyl oxidases ameliorates skin scarring and fibrosis” (Nature Communications, 2022)
# “And” between values parts separate entries of the source, which are not always exact repeats. Identical values can stand only once. “Also recorded” adds a separate entry of the source.
# Experiments:
# [1] = tested on: lysyl oxidases; experiment: Time-dependency of inhibition (pre-incubation times); format: biochemical; parameters: Fig. 2B activity: scale not given here
# Description: PXS-4787 competes with a model substrate (putrescine) for the LOX binding site (Fig. 2d). The allylamine of PXS-4787 interacts with the co-factor of the enzyme and elicits mechanism-based inhibition (Fig. 2e). Through careful optimization, and in contrast to BAPN, PXS-4787 selectivity targets lysyl oxidases and is neither an inhibitor of, nor a substrate for, related oxidases (Fig. 2f, g and Supplementary Table S1). Furthermore, PXS-4787 was clean when profiled in a broad panel of macromolecular targets using enzyme and radioligand binding assays (LeadProfilingScreen, Eurofins CEREP Panlabs, 68 assays, test concentration 10 µM; Supplementary Data S1).
# Data are expressed as mean ± SEM. Subsequent statistical analysis was performed with unpaired two-sided Student’s t tests. *p < 0.05, **p < 0.01, ***p < 0.001and ****p < 0.0001. Source data are provided as a Source Data file.
# The measurement of the enzymatic activity of all lysyl oxidase family members was based on the detection of hydrogen peroxide with an Amplex-Red oxidation assay, as previously described; miniaturized in 384 well formats, with the appropriate combination of substrate and assay buffer for each individual enzyme. After a 30 min pre-incubation of the enzyme at 37 °C with the test compound (or with different incubation times for the time-dependency assay), one volume of reaction mixture containing 120 μM Amplex Red (AR) (Life Technologies), 1.5 U/mL horseradish peroxidase (HRP) (Sigma-Aldrich) and the specific substrate was added to each sample. The relative fluorescence units (RFU) were then measured every 2.5 min for 30 min at 37 °C, excitation 565 nm and emission 590, on a BMG Clariostar Microplate Reader. All the substrates were used at concentrations corresponding to their Km towards the corresponding enzyme, or with a range of different concentrations for the substrate competition experiments.
# [2] = target: Nicotinic Acetylcholine α1, Bungarotoxin (Homo sapiens, UniProt P02708+P07510+Q07001); experiment: Eurofins panel 258700; format: binding; settings: read-out: % Inh.
# Sequence of Nicotinic Acetylcholine α1, Bungarotoxin (P07510 23-517): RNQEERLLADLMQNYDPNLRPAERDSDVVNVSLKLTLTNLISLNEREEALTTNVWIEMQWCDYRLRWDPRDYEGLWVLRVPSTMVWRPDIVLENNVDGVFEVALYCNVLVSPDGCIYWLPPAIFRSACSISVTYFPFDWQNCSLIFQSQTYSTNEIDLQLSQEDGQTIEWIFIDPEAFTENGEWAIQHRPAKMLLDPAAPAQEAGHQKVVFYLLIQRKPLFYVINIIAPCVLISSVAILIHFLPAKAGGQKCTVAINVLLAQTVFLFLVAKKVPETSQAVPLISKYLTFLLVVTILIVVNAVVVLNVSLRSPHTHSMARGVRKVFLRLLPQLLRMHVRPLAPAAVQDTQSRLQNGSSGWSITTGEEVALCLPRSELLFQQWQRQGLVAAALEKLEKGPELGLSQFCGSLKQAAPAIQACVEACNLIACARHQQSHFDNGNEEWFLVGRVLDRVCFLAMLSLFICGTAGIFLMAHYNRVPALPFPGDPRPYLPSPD
# Sequence of Nicotinic Acetylcholine α1, Bungarotoxin (P11230 24-501, further chain): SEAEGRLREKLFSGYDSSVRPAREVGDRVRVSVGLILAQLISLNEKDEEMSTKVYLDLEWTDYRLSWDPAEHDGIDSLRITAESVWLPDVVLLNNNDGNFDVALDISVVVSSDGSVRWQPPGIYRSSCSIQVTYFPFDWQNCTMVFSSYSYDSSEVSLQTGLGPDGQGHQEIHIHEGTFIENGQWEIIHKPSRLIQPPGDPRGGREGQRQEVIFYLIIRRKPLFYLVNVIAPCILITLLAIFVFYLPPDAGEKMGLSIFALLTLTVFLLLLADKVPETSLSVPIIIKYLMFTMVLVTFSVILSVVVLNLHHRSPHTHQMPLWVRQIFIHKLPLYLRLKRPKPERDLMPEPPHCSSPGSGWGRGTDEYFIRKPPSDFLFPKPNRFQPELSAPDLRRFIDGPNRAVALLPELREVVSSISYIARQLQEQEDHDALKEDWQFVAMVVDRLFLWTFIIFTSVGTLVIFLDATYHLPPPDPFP
# Sequence of Nicotinic Acetylcholine α1, Bungarotoxin (P02708 21-457): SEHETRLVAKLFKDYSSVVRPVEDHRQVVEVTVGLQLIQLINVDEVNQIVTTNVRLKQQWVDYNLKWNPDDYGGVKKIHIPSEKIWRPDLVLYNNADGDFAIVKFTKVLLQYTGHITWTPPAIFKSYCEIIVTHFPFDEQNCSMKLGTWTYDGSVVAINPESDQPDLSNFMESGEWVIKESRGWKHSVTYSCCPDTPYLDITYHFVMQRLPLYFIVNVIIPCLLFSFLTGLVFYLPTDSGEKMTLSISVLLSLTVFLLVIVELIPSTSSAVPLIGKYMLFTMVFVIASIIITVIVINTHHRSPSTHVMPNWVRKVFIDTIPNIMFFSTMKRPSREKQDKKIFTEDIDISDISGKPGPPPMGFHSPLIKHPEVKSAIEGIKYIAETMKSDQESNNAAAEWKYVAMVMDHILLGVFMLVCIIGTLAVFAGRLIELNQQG
# Sequence of Nicotinic Acetylcholine α1, Bungarotoxin (Q07001 22-517): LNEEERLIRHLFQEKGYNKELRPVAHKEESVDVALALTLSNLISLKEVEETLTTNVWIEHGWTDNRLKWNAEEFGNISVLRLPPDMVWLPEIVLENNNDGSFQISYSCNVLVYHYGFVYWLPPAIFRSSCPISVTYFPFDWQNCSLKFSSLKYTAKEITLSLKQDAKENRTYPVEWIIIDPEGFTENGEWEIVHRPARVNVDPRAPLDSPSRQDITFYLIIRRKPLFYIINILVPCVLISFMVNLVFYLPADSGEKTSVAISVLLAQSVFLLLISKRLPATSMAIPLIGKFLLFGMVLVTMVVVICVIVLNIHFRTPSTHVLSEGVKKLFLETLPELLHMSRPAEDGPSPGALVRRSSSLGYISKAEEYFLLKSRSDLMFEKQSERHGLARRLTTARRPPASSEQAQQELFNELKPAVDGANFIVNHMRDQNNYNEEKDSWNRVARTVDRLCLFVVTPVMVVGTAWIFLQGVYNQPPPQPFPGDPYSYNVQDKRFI
# [3] = tested on: primary human fibroblasts; experiment: Cell viability MTS assay; format: cell-based
# Procedure: Cell proliferation was measured using a standard 3-(4,5-dimethylthiazol-2-yl)-5-(3-carboxymethoxypheny1)-2-(4-sulfophenyl)-2H-tetrazolium, inner salt (MTS) assay (Cell Titer 96® Aqueous One Solution Cell Proliferation Assay, Promega, Australia) as per the manufacturer’s protocol. Briefly, 2500 primary scar fibroblasts below passage eight were seeded in each well of 96-well plates. The cells then exposed to 0, 1, 2.5, 5, 10, 25, 50, and 100 µM concentrations of PXS-4787 in cell culture media (DMEM-Glutamax™ supplemented with 10% Fetal Bovine Serum and 1% Penicillin/ Streptomycin, Life technologies, USA) for 24, 48 and 72 h. MTS solution (20 µL) was added in each well and incubated for 3.5 h in a humidified chamber at 37 °C and 5% CO2. The absorbance recorded on a UV–visible spectrophotometer (Enspire Multimode plate reader, PerkinElmer®) at 490 nanometers.
structure (smiles),measurement,setting,value
NC/C=C(\F)CS(=O)(=O)c1ccccc1 [PXS-4787],potency versus pre-incubation time,[1],increased potency upon longer pre-incubation times
same,Fig. 2B activity,"[1]; 1.69333e-10, pre-incubation 0 min",106.286
same,Fig. 2B activity,"[1]; 1.69333e-10, pre-incubation 15 min",104.086
same,Fig. 2B activity,"[1]; 1.69333e-10, pre-incubation 30 min",108.652
same,Fig. 2B activity,"[1]; 1.69333e-10, pre-incubation 1 h",105.245
same,Fig. 2B activity,"[1]; 1.69333e-10, pre-incubation 2 h",105.759
same,Fig. 2B activity,"[1]; 1.69333e-10, pre-incubation 4 h",111.637
same,Fig. 2B activity,"[1]; 5.08e-10, pre-incubation 0 min",102.267
same,Fig. 2B activity,"[1]; 5.08e-10, pre-incubation 15 min",101.228
same,Fig. 2B activity,"[1]; 5.08e-10, pre-incubation 30 min",106.873
same,Fig. 2B activity,"[1]; 5.08e-10, pre-incubation 1 h",98.3282
same,Fig. 2B activity,"[1]; 5.08e-10, pre-incubation 2 h",107.568
same,Fig. 2B activity,"[1]; 5.08e-10, pre-incubation 4 h",110.707
same,Fig. 2B activity,"[1]; 1.52e-9, pre-incubation 0 min",101.124
same,Fig. 2B activity,"[1]; 1.52e-9, pre-incubation 15 min",102.218
same,Fig. 2B activity,"[1]; 1.52e-9, pre-incubation 30 min",107.03
same,Fig. 2B activity,"[1]; 1.52e-9, pre-incubation 1 h",103.614
same,Fig. 2B activity,"[1]; 1.52e-9, pre-incubation 2 h",102.685
same,Fig. 2B activity,"[1]; 1.52e-9, pre-incubation 4 h",110.751
same,Fig. 2B activity,"[1]; 4.57e-9, pre-incubation 0 min",99.5583
same,Fig. 2B activity,"[1]; 4.57e-9, pre-incubation 15 min",100.144
same,Fig. 2B activity,"[1]; 4.57e-9, pre-incubation 30 min",103.756
same,Fig. 2B activity,"[1]; 4.57e-9, pre-incubation 1 h",101.013
same,Fig. 2B activity,"[1]; 4.57e-9, pre-incubation 2 h",107.904
same,Fig. 2B activity,"[1]; 4.57e-9, pre-incubation 4 h",105.302
same,Fig. 2B activity,"[1]; 1.37e-8, pre-incubation 0 min",96.8423
same,Fig. 2B activity,"[1]; 1.37e-8, pre-incubation 15 min",98.2429
same,Fig. 2B activity,"[1]; 1.37e-8, pre-incubation 30 min",101.141
same,Fig. 2B activity,"[1]; 1.37e-8, pre-incubation 1 h",101.758
same,Fig. 2B activity,"[1]; 1.37e-8, pre-incubation 2 h",104.569
same,Fig. 2B activity,"[1]; 1.37e-8, pre-incubation 4 h",105.34
same,Fig. 2B activity,"[1]; 4.12e-8, pre-incubation 0 min",98.5025
same,Fig. 2B activity,"[1]; 4.12e-8, pre-incubation 15 min",98.7481
same,Fig. 2B activity,"[1]; 4.12e-8, pre-incubation 30 min",99.9026
same,Fig. 2B activity,"[1]; 4.12e-8, pre-incubation 1 h",99.6216
same,Fig. 2B activity,"[1]; 4.12e-8, pre-incubation 2 h",100.024
same,Fig. 2B activity,"[1]; 4.12e-8, pre-incubation 4 h",98.7222
same,Fig. 2B activity,"[1]; 1.23e-7, pre-incubation 0 min",98.6918
same,Fig. 2B activity,"[1]; 1.23e-7, pre-incubation 15 min",98.1432
same,Fig. 2B activity,"[1]; 1.23e-7, pre-incubation 30 min",101.367
same,Fig. 2B activity,"[1]; 1.23e-7, pre-incubation 1 h",90.8141
same,Fig. 2B activity,"[1]; 1.23e-7, pre-incubation 2 h",90.2595
same,Fig. 2B activity,"[1]; 1.23e-7, pre-incubation 4 h",86.2099
same,Fig. 2B activity,"[1]; 3.7e-7, pre-incubation 0 min",96.5147
same,Fig. 2B activity,"[1]; 3.7e-7, pre-incubation 15 min",94.9326
same,Fig. 2B activity,"[1]; 3.7e-7, pre-incubation 30 min",97.5329
same,Fig. 2B activity,"[1]; 3.7e-7, pre-incubation 1 h",85.2822
same,Fig. 2B activity,"[1]; 3.7e-7, pre-incubation 2 h",74.251
same,Fig. 2B activity,"[1]; 3.7e-7, pre-incubation 4 h",62.6684
same,Fig. 2B activity,"[1]; 1.11e-6, pre-incubation 0 min",94.3157
same,Fig. 2B activity,"[1]; 1.11e-6, pre-incubation 15 min",89.9671
same,Fig. 2B activity,"[1]; 1.11e-6, pre-incubation 30 min",87.3566
same,Fig. 2B activity,"[1]; 1.11e-6, pre-incubation 1 h",64.8977
same,Fig. 2B activity,"[1]; 1.11e-6, pre-incubation 2 h",45.9612
same,Fig. 2B activity,"[1]; 1.11e-6, pre-incubation 4 h",15.2083
same,Fig. 2B activity,"[1]; 3.33e-6, pre-incubation 0 min",92.0439
same,Fig. 2B activity,"[1]; 3.33e-6, pre-incubation 15 min",82.8346
same,Fig. 2B activity,"[1]; 3.33e-6, pre-incubation 30 min",63.1887
same,Fig. 2B activity,"[1]; 3.33e-6, pre-incubation 1 h",32.0154
same,Fig. 2B activity,"[1]; 3.33e-6, pre-incubation 2 h",13.0848
same,Fig. 2B activity,"[1]; 3.33e-6, pre-incubation 4 h",1.062
same,inhibition of the least sensitive lysyl oxidase,"[1]; 10 µM, after 2 h",complete inhibition
same,Fig. 2B activity,"[1]; 1e-5, pre-incubation 0 min",71.7944
same,Fig. 2B activity,"[1]; 1e-5, pre-incubation 15 min",51.1738
same,Fig. 2B activity,"[1]; 1e-5, pre-incubation 30 min",24.7148
same,Fig. 2B activity,"[1]; 1e-5, pre-incubation 1 h",3.779
same,Fig. 2B activity,"[1]; 1e-5, pre-incubation 2 h",2.199
same,Fig. 2B activity,"[1]; 1e-5, pre-incubation 4 h",0.1194
same,Fig. 2B activity,"[1]; 3e-5, pre-incubation 0 min",46.8993
same,Fig. 2B activity,"[1]; 3e-5, pre-incubation 15 min",20.2974
same,Fig. 2B activity,"[1]; 3e-5, pre-incubation 30 min",5.217
same,Fig. 2B activity,"[1]; 3e-5, pre-incubation 1 h",1.087
same,Fig. 2B activity,"[1]; 3e-5, pre-incubation 2 h",2.027
same,Fig. 2B activity,"[1]; 3e-5, pre-incubation 4 h",-1.502
same,inhibition at 10 µM,[2],-3%
same,fibroblast cell viability,"[3]; 0–100 µM, 24, 48 and 72 h",No significant difference in viability; also recorded: no effect
same,Supp Fig. 1 cell viability MTS reading (quantity not given),"[3]; 1μM, time 0 hrs",0.5417 and 0.513 and 0.509
same,Supp Fig. 1 cell viability MTS reading (quantity not given),"[3]; 1μM, time 24 hrs",0.5067 and 0.503 and 0.5037
same,Supp Fig. 1 cell viability MTS reading (quantity not given),"[3]; 1μM, time 48 hrs",0.5417 and 0.513 and 0.509
same,Supp Fig. 1 cell viability MTS reading (quantity not given),"[3]; 1μM, time 72 hrs",0.4673 and 0.4607 and 0.4573
same,Supp Fig. 1 cell viability MTS reading (quantity not given),"[3]; 5μM, time 0 hrs",0.505 and 0.4817 and 0.4813
same,Supp Fig. 1 cell viability MTS reading (quantity not given),"[3]; 5μM, time 24 hrs",0.4947 and 0.4857 and 0.4823
same,Supp Fig. 1 cell viability MTS reading (quantity not given),"[3]; 5μM, time 48 hrs",0.505 and 0.4817 and 0.4813
same,Supp Fig. 1 cell viability MTS reading (quantity not given),"[3]; 5μM, time 72 hrs",0.461 and 0.4743 and 0.4797
same,Supp Fig. 1 cell viability MTS reading (quantity not given),"[3]; 10μM, time 0 hrs",0.5527 and 0.5103 and 0.5143
same,Supp Fig. 1 cell viability MTS reading (quantity not given),"[3]; 10μM, time 24 hrs",0.533 and 0.5197 and 0.5183
same,Supp Fig. 1 cell viability MTS reading (quantity not given),"[3]; 10μM, time 48 hrs",0.5527 and 0.5103 and 0.5143
same,Supp Fig. 1 cell viability MTS reading (quantity not given),"[3]; 10μM, time 72 hrs",0.428 and 0.481 and 0.4927
same,Supp Fig. 1 cell viability MTS reading (quantity not given),"[3]; 25μM, time 0 hrs",0.569 and 0.5407 and 0.5403
same,Supp Fig. 1 cell viability MTS reading (quantity not given),"[3]; 25μM, time 24 hrs",0.5363 and 0.517 and 0.513
same,Supp Fig. 1 cell viability MTS reading (quantity not given),"[3]; 25μM, time 48 hrs",0.569 and 0.5407 and 0.5403
same,Supp Fig. 1 cell viability MTS reading (quantity not given),"[3]; 25μM, time 72 hrs",0.45 and 0.5113 and 0.529
same,Supp Fig. 1 cell viability MTS reading (quantity not given),"[3]; 50μM, time 0 hrs",0.5427 and 0.5253 and 0.526
same,Supp Fig. 1 cell viability MTS reading (quantity not given),"[3]; 50μM, time 24 hrs",0.4977 and 0.5027 and 0.5057
same,Supp Fig. 1 cell viability MTS reading (quantity not given),"[3]; 50μM, time 48 hrs",0.5427 and 0.5253 and 0.526
same,Supp Fig. 1 cell viability MTS reading (quantity not given),"[3]; 50μM, time 72 hrs",0.5073 and 0.527 and 0.526
same,Supp Fig. 1 cell viability MTS reading (quantity not given),"[3]; 100μM, time 0 hrs",0.478 and 0.466 and 0.467
same,Supp Fig. 1 cell viability MTS reading (quantity not given),"[3]; 100μM, time 24 hrs",0.468 and 0.457 and 0.456
same,Supp Fig. 1 cell viability MTS reading (quantity not given),"[3]; 100μM, time 48 hrs",0.461 and 0.4477 and 0.449
same,Supp Fig. 1 cell viability MTS reading (quantity not given),"[3]; 100μM, time 72 hrs",0.4837 and 0.4977 and 0.499
